Results on two compounds are retold here after article PMC4167557 (Nanomedicine (London, England), 2014).

Data set [1] concerns vital organs (heart, liver, spleen, lung, kidney). Nature of the data set: Histological analysis of organ toxicity. It counts as in vivo. The following applies: mice, 5 days after treatment.
Data set [2] is described as follows: Pharmacokinetics in mice after single intravenous injection. The class given is in vivo, BALB/c mice.
The test system of data set [3] is plasma creatine kinase MB isoenzyme. Description: Plasma CK-MB ELISA. It counts as in vivo. To be noted: mice, single dose DNR 15 mg/kg. A general note: In an ELISA, binding on a coated surface is turned into a signal by an enzyme label.
The subject of the next data set is K562-CLL1 xenograft. Nature of the data set: Efficacy in mice bearing K562-CLL1 xenograft. The class given is in vivo, nude mice. The following applies: 10 mg/kg every 3 days.
Data set [4] in a line: Pharmacokinetics in rats after single intravenous injection. The class given is in vivo, Sprague–Dawley rats.
The test system of data set [5] is Caspase 3/7 in heart tissues. Description: Caspase-Glo 3/7 assay in heart tissue. The following applies: 25 mg/kg, 5 days after treatment. It counts as in vivo.
Data set [6] concerns plasma cardiac troponin T (cTnT). Description: Plasma cardiac troponin T ELISA. It counts as in vivo. To be noted: single dose DNR 15 mg/kg.
Another data set has as its system CLL1-expressing cells. The following applies: therapeutic concentration of approximately 4 µM ref 8; cited from earlier work.
[7] abbreviates: BALB/c, mouse, plasma, iv, 10 mg/kg.
The mark [8] stands for this setting: mice, 10 mg/kg DNR iv, mean ± SD.
The mark [9] stands for this setting: Sprague-Dawley, rat, plasma, iv, 5 mg/kg.
Setting [10] is: rats, 5 mg/kg DNR iv, mean ± SD.

Bridges are numbered along the chain shown (N, C = ends). Where no end group is shown, it is not given here.

Broadly, the AUC(0-t) is the area under the concentration-time curve up to a stated or last time point. A lower AUC(0-t) goes with less exposure. A word on the Cmax: it is the peak of the concentration-time curve. One may read the MRT as the average time that molecules of a dose stay in the body. One may read the Vd as a proportionality between amount in the body and measured concentration, not a real space. A higher Vd goes with extensive tissue distribution. Usually clearance stands for the rate of elimination divided by the concentration. High values mean a high capacity for elimination, low ones a low capacity for elimination. The half-life is the time in which the quantity being followed falls by half. As to `COc1cccc2c1C(=O)c1c(O)c3c(c(O)c1C2=O)C[C@@](O)(C(C)=O)C[C@@H]3O[C@H]1C[C@H](N)[C@H](O)[C@H](C)O1` [Free DNR, daunorubicin], the “histopathological changes in cardiac tissue” value in data set [1] (25 mg/kg) is reported as “marked myocardial toxicity”. Also, the “histopathological changes in spleen” value in data set [1] (low- or high-dose (5 and 25 mg/kg)) was “Marked red pulp hemorrhage-associated compensative sinusoidal histocytic proliferation and extramedullary hematopoiesis”. Further, in data set [2] (setting [7]), the AUC(0-t) was 836 ± 151 µg·h/mL, the highest level (Cmax) was 961000 ± 92000 ng/mL, the MRT is 16.7 h and the distribution volume (Vd) amounted to 0.205 ± 0.048 L/kg. In data set [2] (setting [7]), this compound had a clearance of 0.2 ± 0.03 mL/min/kg and a concentration at 24 h of 13600 ± 1920 ng/mL. The half-life in data set [2] (BALB/c, mouse, plasma, iv, 10 mg/kg, T 1/2β, mice, 10 mg/kg DNR iv) was 11.9 ± 1 h. Besides, in data set [2] (mice, 10 mg/kg DNR iv, initial half-life in plasma), the “T 1/2α” value turned out to be 1.11 ± 0.04 min. In data set [2] (setting [8]), this compound had a Kel of 3.68 ± 6.35, a α of 0.63 ± 0.02 min⁻¹ and a β of 0.0001 min⁻¹. Besides, the “plasma CK-MB level” value in data set [3] (3 h after dosing) is 60.02 ± 4.05 U/l. Further, in data set [3] (5 days of follow-up), the “plasma CK-MB level” value was determined as 113.98 ± 10.42 U/l. Besides, the overall survival in the data set with K562-CLL1 xenograft is 44 days. In data set [4] (setting [9]), the exposure AUC(0-t) came out at 3.6 ± 0.79 µg·h/mL, the peak level (Cmax) was 1910 ± 260 ng/mL, the mean residence time (MRT) was found to be 36.2 ± 6.51 h and the volume of distribution (Vd) was found to be 50.8 L/kg. The compound further showed a clearance in data set [4] (setting [9]) of 23.7 ± 5.2 mL/min/kg. The same compound gave a half-life in data set [4] (Sprague-Dawley, rat, plasma, iv, 5 mg/kg, T 1/2β, rats, 5 mg/kg DNR iv) of 25.4 ± 4.54 h. The “T 1/2α” value in data set [4] (rats, 5 mg/kg DNR iv) was determined as 56.4 ± 0 s. In data set [4] (setting [10]), this compound returned a Kel of 0.01 ± 0.00, a α of 0.74 ± 0.00 min⁻¹ and a β of 0.00 ± 0.00 min⁻¹. Further, the “caspase 3/7 activity in cardiac tissue relative to control mice treated with PBS” value in data set [5] was “about 3.46 times”. Also, the “cTnT level relative to control mice” value in data set [6] (1 day after dosing) was 9.15 times. Moreover, in data set [6] (3 days (peak)), the “cTnT level relative to control mice” value worked out at 15.8 times.

In the case of “CLL1-targeting ligand: CLL1-targeting peptide (amino acid sequence: CDLRSAAVC), cyclized via disulfide (disulfide 1-9 (inferred))”, the “increase of micelle-mediated drug delivery to CLL1-expressing cells” value with CLL1-expressing cells was “approximately threefold”.
